The source of these data is patent publication EP1200093B1, “USE OF 2-AMINO-4-(4-FLUORONAPHTH-1-YL)-6-ISOPROPYLPYRIMIDINE IN THE TREATMENT OF GI DISORDERS” (priority 1999, dated 2001).

Test [1] deals with T1, 5-HT receptor in human colon longitudinal muscle (Homo sapiens, UniProt P41595).
T1 construct: Longitudinal muscle strips (2mm wide by 20mm long) were then cut from the tissue between the taenia coli; from tissue; host or cells: human colon longitudinal muscle strips, electrically stimulated
Briefly: cell-based. In kind it is cell-based.

Test [2] has as its target T2, 5-HT2B (Homo sapiens, UniProt P41595). Particulars: human receptor, comparison data; cited from earlier work.
Test [3] concerns the target T3, 5-HT4 (Homo sapiens, UniProt Q13639). Particulars: human receptor, comparison data; cited from earlier work.
In test [4] the target is T3, 5-HT4. Particulars: * responses to 5-HT in human isolated tissues; cited from earlier work.
Another test concerns the target T4, 5-HT2C (Homo sapiens, UniProt P28335).
T4 sequence (P28335 33-458): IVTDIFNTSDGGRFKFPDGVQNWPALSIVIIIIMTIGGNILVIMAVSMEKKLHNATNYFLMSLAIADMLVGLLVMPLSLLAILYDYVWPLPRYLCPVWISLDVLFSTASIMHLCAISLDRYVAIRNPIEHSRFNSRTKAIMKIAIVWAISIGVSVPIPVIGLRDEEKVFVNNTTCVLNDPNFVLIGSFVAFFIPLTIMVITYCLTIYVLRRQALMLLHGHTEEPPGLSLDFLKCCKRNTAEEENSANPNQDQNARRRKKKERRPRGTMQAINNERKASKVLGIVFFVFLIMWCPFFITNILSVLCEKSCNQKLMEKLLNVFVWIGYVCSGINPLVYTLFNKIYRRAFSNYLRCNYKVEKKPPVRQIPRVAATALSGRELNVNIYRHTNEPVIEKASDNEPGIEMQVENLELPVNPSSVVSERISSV
Particulars: * responses to 5-HT in human isolated tissues; cited from earlier work.

Test [5] deals with T2, 5-HT2B. Particulars: * responses to 5-HT in human isolated tissues; cited from earlier work.
Test [6] deals with 5-HT receptor in human colon longitudinal muscle. Briefly: cell-based. It is filed as cell-based.

SMILES strings stand for the structures. Several values for one entry are separate records, joined by “and”; a condition that tells them apart may be missing. Equal values may be shown once. A value given as a limit tells only on which side of the number the result lay.

T2 sequence (P41595 whole entry): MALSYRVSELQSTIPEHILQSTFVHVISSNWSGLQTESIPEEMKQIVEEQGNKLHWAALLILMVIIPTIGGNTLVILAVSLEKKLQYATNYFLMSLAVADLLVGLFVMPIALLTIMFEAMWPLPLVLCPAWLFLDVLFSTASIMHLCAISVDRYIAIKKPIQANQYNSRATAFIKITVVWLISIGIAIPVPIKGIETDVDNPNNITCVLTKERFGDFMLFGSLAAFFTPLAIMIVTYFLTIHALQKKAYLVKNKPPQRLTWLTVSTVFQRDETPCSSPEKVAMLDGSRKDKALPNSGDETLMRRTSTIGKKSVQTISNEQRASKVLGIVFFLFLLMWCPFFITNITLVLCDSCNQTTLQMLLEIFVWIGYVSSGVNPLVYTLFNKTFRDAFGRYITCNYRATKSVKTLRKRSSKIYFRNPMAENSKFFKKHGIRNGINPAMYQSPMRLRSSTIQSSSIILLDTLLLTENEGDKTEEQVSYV
T1 sequence (P41595 whole entry): as above
T3 sequence (Q13639 whole entry): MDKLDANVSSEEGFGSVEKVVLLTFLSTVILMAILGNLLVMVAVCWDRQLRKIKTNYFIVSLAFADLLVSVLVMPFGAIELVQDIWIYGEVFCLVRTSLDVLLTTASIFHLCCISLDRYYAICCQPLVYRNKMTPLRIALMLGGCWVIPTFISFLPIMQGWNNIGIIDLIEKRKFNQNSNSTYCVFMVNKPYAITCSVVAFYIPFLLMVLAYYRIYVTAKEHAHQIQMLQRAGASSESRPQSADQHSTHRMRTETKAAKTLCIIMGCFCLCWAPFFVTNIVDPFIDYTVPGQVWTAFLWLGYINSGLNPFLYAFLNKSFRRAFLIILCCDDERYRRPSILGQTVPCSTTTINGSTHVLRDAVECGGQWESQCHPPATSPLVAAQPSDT

Regarding `Cc1[nH]c2ccc(O)cc2c1CCN` [2-Me-5-HT], the EC50 in test [1] is 100 nM. For the same compound, the “mean pEC50, 5-HT2B” value on 5-HT2B [2] is reported as 6.7. Moreover, on 5-HT4 [3], the “mean pEC50, 5-HT4” value is reported as 6.0.

Compound `COc1ccc2[nH]cc(CCN)c2c1` [5-MeOT] had an EC50 in test [1] of 158 nM. Moreover, the “mean pEC50, 5-HT2B” value on 5-HT2B [2] was 7.6. At 5-HT4 [3], the “mean pEC50, 5-HT4” value was 6.2.

The compound `CC(N)Cc1c[nH]c2ccc(O)cc12` (stereo not drawn) [Alpha-Me-5-HT] showed an EC50 in test [1] of 3.16 nM. The “mean pEC50, 5-HT2B” value on 5-HT2B [2] is given as 8.4. Moreover, the “mean pEC50, 5-HT4” value at 5-HT4 [3] was 6.2.

With `O=C(c1ccc(F)cc1)C1CCN(CCn2c(=O)[nH]c3ccccc3c2=O)CC1` [Ketanserin], at 5-HT4 [4], the “mean pKB or pA2, 5-HT4” value is recorded as 4.7*.

Turning to `CSc1ccc2c(c1)C(N1CCN(C)CC1)Cc1ccccc1S2` (stereo not shown) [Methiothepin], the “mean pKB or pA2, 5-HT4” value on 5-HT4 [4] is <6.0*.

On to `CC[C@@H](CO)NC(=O)[C@@H]1C=C2c3cccc4c3c(cn4C)C[C@H]2N(C)C1` [Methysergide], for which, on 5-HT2C, the “mean pKB or pA2, 5-HT2C” value is 8.9*. For the same compound, the “mean pKB or pA2, 5-HT4” value on 5-HT4 [4] is recorded as <5.0*.

On to `CC(C)c1cc(-c2ccc(F)c3ccccc23)nc(N)n1` [RS127445, 2-amino-4-(4-fluoronaphth-1-yl)-6-isopropylpyrimidine], for which the Kb in test [1] is 0.316 nM and 0.355 nM. The “Schild analysis, slope of plot” value in test [1] (antagonism of 5-HT, RS127445 0.3nM to 100nM) was 0.93±0.17.

Take `Cn1ccc2cc3c(cc21)CCN3C(=O)Nc1cccnc1` [SB 206553]: the “Affinity (pKB) at the 5-HT receptor in human colon longitudinal muscle” value in test [1] (antagonism of 5-HT in electrically-stimulated strips, at least 3 donors (RS127445: n>4 donors)) is reported as 8.5±0.1. For the same compound, at 5-HT2B [5], the “mean pKB or pA2, 5-HT2B” value was 9.0*.

On to `Cc1cc2c(cc1Cl)N(C(=O)Nc1ccc(Oc3cccnc3C)nc1)CC2` [SB 242084], for which the Kb in test [1] was 501 nM.

Turning to `CN1[C@@H]2CC[C@H]1C[C@@H](OC(=O)C(CO)c1ccccc1)C2` (stereo partly shown) [atropine], in test [6], the “effect on electrically-induced contractile response” value is recorded as “inhibited”.

A word on the EC50: it is the concentration needed to bring the measured effect to its halfway point. Low readings indicate an effect from little substance, high ones a need for much substance.
